Publication PMC6696278 (International Journal of Molecular Sciences, 2019)

Experiments:
Assay type in all cases: binding
human galectin-1 = target: T1, human galectin-1 (Homo sapiens, UniProt P09382); experiment: competitive fluorescence polarization assay, galectin-1; conditions: for Kd: average and SEM of 4–8 single-triple point measurements, PBS; for fold better affinity for galectin-1 than reference methyl β-D-galactopyranoside 32: ratio of Kd values; for binding to galectin-1 (in words): under the assay conditions
T1 construct: made in house
Description: (§1) Human galectin-1 [25], galectin-2 [26], galectin-3 [27], galectin-4N [19], galectin-4C [19], galectin-8N [28], galectin-8C [28], galectin-9N [29], and galectin-9C [30], were expressed and purified as described earlier. Human galectin-7 was expressed using a pET3c plasmid in E. coli BL21-star. The plasmid containing expression optimized DNA encoding the full human galectin-7 sequence (NCBI Reference Sequence: NP_002298.1) was obtained from GenScript (Piscataway, NJ, USA). […] Lactose was removed by chromatography on a PD-10 column (Amersham Biosciences) with repeated ultrafiltration with Centriprep (Amicon).
(§2) Fluorescence polarization experiments were carried out either with a POLARStar plate reader and FLUOstar Galaxy software or with a PheraStarFS plate reader and PHERAstar Mars version 2.10 R3 software (BMG, Offenburg, Germany). The dissociation constant (Kd) values were determined in PBS as described earlier. Specific conditions for galectin-1, 2, 3, 4N, 4C, 8N, 8C, 9N, and 9C were kept as reported. Experiments were performed at room temperature with human galectin-7 at 5 µM and the fluorescent probe β-D-galactopyranosyl-(1–4)-2-acetamido-2-deoxy-β-d-glucopyranosyl-(1–3)-β-d-galactopyranosyl-(1–4)-(N1-fluorescein-5-yl-carbonylaminomethylcarbonyl)-β-D-glucopyranosylamine at 0.02 µM. All the compounds in Table 1 except 32 were dissolved in a neat DMSO at 100 mM and diluted in PBS to three to six different concentrations to be tested in duplicate.

human galectin-3 = target: T2, human galectin-3 (Homo sapiens, UniProt P17931); experiment: competitive fluorescence polarization assay, galectin-3; conditions: average and SEM, PBS
T2 construct: made in house; host or cells: vector pET3c (the same vector as galectin-7)
Description: as §1, §2

[1] = target: T3, human galectin-4N (N-terminal domain) (Homo sapiens, UniProt P56470); experiment: competitive fluorescence polarization assay, galectin-4N; conditions: for Kd: N-terminal domain, average and SEM, PBS
T3 construct: 4N (N-terminal domain) 4C (C-terminal domain); made in house
T3 sequence (P56470 19-150 limits assumed): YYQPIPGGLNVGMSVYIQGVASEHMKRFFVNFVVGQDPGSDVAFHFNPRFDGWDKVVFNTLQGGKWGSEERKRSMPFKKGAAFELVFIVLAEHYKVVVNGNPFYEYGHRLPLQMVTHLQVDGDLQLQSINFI
Description: (§3) Human galectin-1 [25], galectin-2 [26], galectin-3 [27], galectin-4N [19], galectin-4C [19], galectin-8N [28], galectin-8C [28], galectin-9N [29], and galectin-9C [30], were expressed and purified as described earlier. Human galectin-7 was expressed using a pET3c plasmid in E. coli BL21-star. The plasmid containing expression optimized DNA encoding the full human galectin-7 sequence (NCBI Reference Sequence: NP_002298.1) was obtained from GenScript (Piscataway, NJ, USA). Bacterial culture and induction, and galectin purification was essential as described for galectin-3 expressed with the same vector [27]; a typical yield was 1.5–2 mg/L culture. Lactose was removed by chromatography on a PD-10 column (Amersham Biosciences) with repeated ultrafiltration with Centriprep (Amicon).
as §2

human galectin-7 = target: T4, human galectin-7 (Homo sapiens, UniProt P47929); experiment: competitive fluorescence polarization assay, galectin-7; conditions: average and SEM, PBS, room temperature, galectin-7 at 5 µM, probe 0.02 µM
T4 construct: made in house; host or cells: E. coli BL21-star, pET3c plasmid (DNA from GenScript)
Description: as §3, §2

[2] = target: T5, human galectin-8N (N-terminal domain) (Homo sapiens, UniProt O00214); experiment: competitive fluorescence polarization assay, galectin-8N; conditions: PBS
T5 construct: 4N (N-terminal domain) 4C (C-terminal domain), 7, 8N, 8C, 9N, and 9C; made in house
T5 sequence (O00214 19-152 limits assumed): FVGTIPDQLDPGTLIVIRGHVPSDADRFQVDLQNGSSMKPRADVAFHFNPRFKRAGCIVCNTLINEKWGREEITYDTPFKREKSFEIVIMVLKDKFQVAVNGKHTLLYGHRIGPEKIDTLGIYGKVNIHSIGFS
Description: as §1, §2

[3] = target: T6, human galectin-8C (C-terminal domain) (Homo sapiens, UniProt O00214); experiment: competitive fluorescence polarization assay, galectin-8C; conditions: PBS
T6 construct: 4N (N-terminal domain) 4C (C-terminal domain), 7, 8N, 8C, 9N, and 9C; made in house
T6 sequence (O00214 187-317 limits assumed): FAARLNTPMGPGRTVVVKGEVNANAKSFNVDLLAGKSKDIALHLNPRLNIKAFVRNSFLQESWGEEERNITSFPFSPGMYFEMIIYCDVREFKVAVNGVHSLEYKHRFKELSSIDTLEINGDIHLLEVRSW
Description: as §1, §2

[4] = target: T7, human galectin-9N (N-terminal domain) (Homo sapiens, UniProt O00182); experiment: competitive fluorescence polarization assay, galectin-9N; conditions: PBS
T7 construct: 4N (N-terminal domain) 4C (C-terminal domain), 7, 8N, 8C, 9N, and 9C; made in house
Description: as §3, §2

[5] = target: T8, human galectin-9C (C-terminal domain) (Homo sapiens, UniProt O00182); experiment: competitive fluorescence polarization assay, galectin-9C; conditions: PBS
T8 construct: 4N (N-terminal domain) 4C (C-terminal domain), 7, 8N, 8C, 9N, and 9C; made in house
Description: as §1, §2

human galectin-2 = target: T9, human galectin-2 (Homo sapiens, UniProt P05162); experiment: competitive fluorescence polarization assay, galectin-2; conditions: average and SEM, PBS
T9 construct: made in house
T9 sequence (P05162 1-132): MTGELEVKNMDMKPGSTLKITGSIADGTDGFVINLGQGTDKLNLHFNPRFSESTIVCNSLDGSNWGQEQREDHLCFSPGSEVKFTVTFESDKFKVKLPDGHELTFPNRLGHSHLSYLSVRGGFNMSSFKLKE
Description: as §3, §2

[6] = target: T10, human galectin-4C (C-terminal domain) (Homo sapiens, UniProt P56470); experiment: competitive fluorescence polarization assay, galectin-4C; conditions: PBS
T10 construct: 4N (N-terminal domain) 4C (C-terminal domain); made in house
T10 sequence (P56470 194-323 limits assumed): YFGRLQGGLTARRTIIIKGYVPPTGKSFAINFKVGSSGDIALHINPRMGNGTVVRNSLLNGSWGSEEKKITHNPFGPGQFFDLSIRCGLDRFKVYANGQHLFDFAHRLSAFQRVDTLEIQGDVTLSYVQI
Description: as §1, §2

T1 sequence (P09382 whole entry): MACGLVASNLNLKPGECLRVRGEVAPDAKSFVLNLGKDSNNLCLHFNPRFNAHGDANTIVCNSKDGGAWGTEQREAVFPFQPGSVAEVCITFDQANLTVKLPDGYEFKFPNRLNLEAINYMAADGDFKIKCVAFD
T7 sequence (O00182 17-148 limits assumed): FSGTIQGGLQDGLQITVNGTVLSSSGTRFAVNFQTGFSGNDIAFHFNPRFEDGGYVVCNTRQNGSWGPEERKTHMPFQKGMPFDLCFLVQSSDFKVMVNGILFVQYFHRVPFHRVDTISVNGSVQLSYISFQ
T4 sequence (P47929 whole entry): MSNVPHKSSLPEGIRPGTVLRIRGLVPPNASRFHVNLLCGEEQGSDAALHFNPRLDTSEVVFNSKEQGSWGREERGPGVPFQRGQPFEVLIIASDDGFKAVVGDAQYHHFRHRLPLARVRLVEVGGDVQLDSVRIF
T2 sequence (P17931 whole entry): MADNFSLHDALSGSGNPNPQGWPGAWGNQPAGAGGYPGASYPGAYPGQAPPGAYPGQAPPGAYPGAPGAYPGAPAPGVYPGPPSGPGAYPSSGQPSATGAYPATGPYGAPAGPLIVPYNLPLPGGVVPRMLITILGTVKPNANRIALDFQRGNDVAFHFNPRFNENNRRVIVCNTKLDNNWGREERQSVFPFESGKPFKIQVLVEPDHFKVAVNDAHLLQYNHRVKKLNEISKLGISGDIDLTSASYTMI
T8 sequence (O00182 227-355 limits assumed): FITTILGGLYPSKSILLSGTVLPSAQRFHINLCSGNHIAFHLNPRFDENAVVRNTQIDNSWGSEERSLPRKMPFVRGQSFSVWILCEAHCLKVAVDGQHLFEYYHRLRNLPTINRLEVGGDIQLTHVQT

| SMILES | Kd (human galectin-1; Table 1) [mM] | Kd (human galectin-3; Table 1) [mM] | Kd ([1]; Table 1) [mM] | Kd (human galectin-7; Table 1) [mM] | Kd ([2]; Table 1, average and SEM) [mM] | Kd ([3]; Table 1, average and SEM) [mM] | Kd ([5]; Table 1, average and SEM) [mM] | Kd (human galectin-1; Table 2) [mM] | Kd (human galectin-2; Table 2) [mM] | Kd (human galectin-3; Table 2) [mM] | Kd ([1]; Table 2) [mM] | Kd ([6]; Table 2, average and SEM) [mM] | Kd (human galectin-7; Table 2) [mM] | Kd ([2]; Table 2, average and SEM) [mM] | Kd ([3]; Table 2, average and SEM) [mM] | Kd ([4]; Table 2, average and SEM) [mM] | Kd ([5]; Table 2, average and SEM) [mM] | Kd ([6]; Table 1, average and SEM) [mM] | also measured |
| --- | --- | --- | --- | --- | --- | --- | --- | --- | --- | --- | --- | --- | --- | --- | --- | --- | --- | --- | --- |
| CO[C@@H]1O[C@H](CO)[C@H](O)[C@@H](CO)[C@H]1O [Compound 1a, Methyl 3-Deoxy-3-C-Hydroxymethyl-β-D-Gulopyranoside] | 1.3 ± 0.15 | > 4 | > 4 | > 4 | > 4 | 3.7 ± 0.02 | > 4 | – | – | – | – | – | – | – | – | – | – | – | fold better affinity for galectin-1 than reference methyl β-D-galactopyranoside 32 (human galectin-1): 7 fold; Kd ([4]; Table 1, average and SEM): > 4 mM |
| CO[C@@H]1O[C@H](CO)[C@H](O)[C@H](CNC(=O)c2c(F)c(F)c(F)c(F)c2F)[C@H]1O [Compound 7g, Methyl 3-Deoxy-3-C-(2,3,4,5,6-Pentafluorobenzamidomethyl)-β-D-Galactopyranoside] | – | – | – | – | – | – | – | 0.7 ± 0.005 | > 4 | > 4 | > 4 | > 4 | > 4 | > 4 | > 4 | > 4 | > 4 | – | fold better affinity for galectin-1 than reference methyl β-D-galactopyranoside 32 (human galectin-1): 14 fold |
| COC[C@H]1[C@@H](O)[C@@H](CO)O[C@@H](OC)[C@@H]1O [Compound 3, Methyl 3-Deoxy-3-C-Methoxymethyl-β-D-Galactopyranoside] | > 4 | > 4 | – | – | > 4 | > 4 | – | – | – | – | – | – | – | – | – | – | – | – | – |
| CO[C@@H]1O[C@H](CO)[C@H](O)[C@H](CNC(=O)c2ccc(C)cc2)[C@H]1O [Compound 7i, Methyl 3-Deoxy-3-C-(p-Toluamidomethyl)-β-D-Galactopyranoside] | – | – | – | – | – | – | – | 2.3 ± 0.4 | > 4 | > 4 | > 4 | > 4 | > 4 | > 4 | > 4 | > 4 | > 4 | – | – |
| CO[C@@H]1O[C@H](CO)[C@H](O)[C@H](COc2cccc(C(F)(F)F)c2)[C@H]1O [Compound 2, Methyl 3-Deoxy-3-C-(3-Trifluoromethylphenoxymethyl)-β-D-Galactopyranoside] | > 4 | > 4 | > 4 | > 4 | > 4 | > 4 | > 4 | – | – | – | – | – | – | – | – | – | – | > 4 | Kd (human galectin-2; Table 1): > 4 mM; Kd ([4]; Table 1, average and SEM): > 4 mM |
| CO[C@@H]1O[C@H](CO)[C@H](O)[C@H](CO)[C@H]1O [Compound 1b, Methyl 3-Deoxy-3-C-Hydroxymethyl-β-D-Galactopyranoside] | > 4 | > 4 | > 4 | > 4 | > 4 | > 4 | > 4 | – | – | – | – | – | – | – | – | – | – | > 4 | Kd (human galectin-2; Table 1): > 4 mM; binding to galectin-4N (in words) [1]: weak binding; Kd ([4]; Table 1, average and SEM): > 4 mM |
| CO[C@@H]1O[C@H](CO)[C@H](O)[C@H](CNC(=O)c2ccccc2F)[C@H]1O [Compound 7c, Methyl 3-Deoxy-3-C-(2-Fluorobenzamidomethyl)-β-D-Galactopyranoside] | – | – | – | – | – | – | – | 1.9 ± 0.04 | > 4 | > 4 | 2.2 ± 0.16 | > 4 | > 4 | > 4 | > 4 | > 4 | > 4 | – | – |
| CO[C@@H]1O[C@H](CO)[C@H](O)[C@@H](O)[C@H]1O [Compound 9, Methyl β-D-Gulopyranoside] | – | – | – | – | – | – | – | – | 10 ± 1.5 | – | – | – | > 4 | – | – | > 4 | > 4 | – | – |
| CO[C@@H]1O[C@H](CO)[C@H](O)[C@H](CNC(=O)c2cccc(C(F)(F)F)c2)[C@H]1O [Compound 7k, Methyl 3-Deoxy-3-C-(3-Trifluoromethylbenzamidomethyl)-β-D-Galactopyranoside] | – | – | – | – | – | – | – | 1.8 ± 0.07 | > 4 | > 4 | 1.9 ± 0.1 | > 4 | > 4 | > 4 | > 4 | > 4 | > 4 | – | – |
| CO[C@@H]1O[C@H](CO)[C@H](O)[C@@H](CNS(=O)(=O)c2ccccc2)[C@H]1O [Compound 6, Methyl 3-Deoxy-3-C-(Phenylsufonamido)Methyl-β-D-Galactopyranoside] | > 10 | > 4 | > 4 | > 4 | > 4 | > 4 | > 4 | – | – | – | – | – | – | – | – | – | – | > 4 | – |
| CO[C@@H]1O[C@H](CO)[C@H](O)[C@H](CNC(=O)c2ccc(-c3ccccc3)cc2)[C@H]1O [Compound 7l, Methyl 3-Deoxy-3-C-(4-Phenylbenzamidomethyl)-β-D-Galactopyranoside] | – | – | – | – | – | – | – | > 4 | > 4 | > 4 | > 4 | > 4 | > 4 | > 4 | > 4 | > 4 | > 4 | – | binding to galectin-1 (in words) (human galectin-1): did not bind |
| CO[C@@H]1O[C@H](CO)[C@H](O)[C@@H](CNP(=O)(Oc2ccccc2)Oc2ccccc2)[C@H]1O [Compound 8, Methyl 3-Deoxy-3-C-(Diphenylphosphonamidomethyl)-β-D-Galactopyranoside] | > 10 | > 4 | > 4 | > 4 | > 4 | > 4 | > 5 | – | – | – | – | – | – | – | – | – | – | > 4 | – |
| CO[C@@H]1O[C@H](CO)[C@H](O)[C@@H](CNC(=O)c2ccccc2)[C@H]1O [Compound 7a, Methyl 3-Deoxy-3-C-Benzamidomethyl-β-D-Gulopyranoside] | 1.8 ± 0.15 | > 4 | > 4 | > 4 | > 4 | > 4 | > 4 | – | – | – | – | – | – | – | – | – | – | > 4 | Kd (human galectin-2; Table 1): > 4 mM |
| CO[C@@H]1O[C@H](CO)[C@H](O)[C@@H](NC(=O)c2ccccc2)[C@H]1O [Compound 10, Methyl 3-Benzamido-3-Deoxy-β-D-Gulopyranoside] | – | – | – | – | – | – | – | > 4 | > 4 | > 4 | 1.3 ± 0.2 | > 4 | – | > 4 | > 4 | > 4 | > 4 | – | binding to galectin-1 (in words) (human galectin-1): no binding; binding to galectin-4N (in words) [1]: improved binding |
